≈ marks a conversion by molar mass, not a printed value.
Legend:
[1] = target: T1, human progesterone receptor A (Homo sapiens, UniProt P06401); experiment: Progesterone receptor-antagonistic action in stably transfected SK-N-MC cells with MMTV-LUC reporter (PR-A); format: cell-based; conditions: antagonistic potency against 0.1 nmol/l promegestone, 24 hours, luciferase
T1 construct: expressed in transfected cells; host or cells: SK-N-MC human neuroblastoma cells, stably transfected with pRChPR-A-neo and pMMTV-LUC
T1 sequence (P06401 1-769 isoform P06401-2): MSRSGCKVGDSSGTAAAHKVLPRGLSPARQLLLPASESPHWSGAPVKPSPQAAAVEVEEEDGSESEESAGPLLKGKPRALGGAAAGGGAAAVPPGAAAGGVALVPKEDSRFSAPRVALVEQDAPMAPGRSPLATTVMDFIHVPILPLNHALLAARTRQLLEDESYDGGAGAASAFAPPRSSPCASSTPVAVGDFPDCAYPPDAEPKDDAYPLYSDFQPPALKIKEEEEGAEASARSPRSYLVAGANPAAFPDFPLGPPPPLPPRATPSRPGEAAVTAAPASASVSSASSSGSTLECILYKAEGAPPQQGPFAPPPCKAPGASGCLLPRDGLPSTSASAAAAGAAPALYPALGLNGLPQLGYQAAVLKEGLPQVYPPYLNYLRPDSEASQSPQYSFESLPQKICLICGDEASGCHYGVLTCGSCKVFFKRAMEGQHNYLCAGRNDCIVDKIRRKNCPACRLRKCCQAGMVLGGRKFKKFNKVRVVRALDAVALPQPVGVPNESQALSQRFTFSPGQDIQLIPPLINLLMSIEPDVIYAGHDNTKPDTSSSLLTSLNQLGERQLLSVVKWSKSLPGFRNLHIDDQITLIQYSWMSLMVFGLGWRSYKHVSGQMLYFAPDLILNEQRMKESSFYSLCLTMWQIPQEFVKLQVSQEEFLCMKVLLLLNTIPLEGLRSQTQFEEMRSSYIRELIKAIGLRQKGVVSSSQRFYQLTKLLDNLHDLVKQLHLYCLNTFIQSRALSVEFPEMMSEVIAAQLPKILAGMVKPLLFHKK
Procedure, shortened: (§1)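 SK-N-MC neuroblastoma cells stably expressing human PR-A or PR-B plus MMTV-LUC reporter, treated 24 h with test compound (0.01 nmol/l–[…]). Antagonist mode used co-treatment with 0.1 nmol/l promegestone; luciferase in lysates read as RLU, expressed as % efficacy and IC50/EC50.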

[2] = target: T2, human progesterone receptor B (Homo sapiens, UniProt P06401); experiment: Progesterone receptor-antagonistic action in stably transfected SK-N-MC cells with MMTV-LUC reporter (PR-B); format: cell-based; conditions: antagonistic potency against 0.1 nmol/l promegestone, 24 hours, luciferase
T2 construct: expressed in transfected cells; host or cells: SK-N-MC human neuroblastoma cells, stably transfected with pRChPR-B-neo and pMMTV-LUC
T2 sequence (P06401 1-933): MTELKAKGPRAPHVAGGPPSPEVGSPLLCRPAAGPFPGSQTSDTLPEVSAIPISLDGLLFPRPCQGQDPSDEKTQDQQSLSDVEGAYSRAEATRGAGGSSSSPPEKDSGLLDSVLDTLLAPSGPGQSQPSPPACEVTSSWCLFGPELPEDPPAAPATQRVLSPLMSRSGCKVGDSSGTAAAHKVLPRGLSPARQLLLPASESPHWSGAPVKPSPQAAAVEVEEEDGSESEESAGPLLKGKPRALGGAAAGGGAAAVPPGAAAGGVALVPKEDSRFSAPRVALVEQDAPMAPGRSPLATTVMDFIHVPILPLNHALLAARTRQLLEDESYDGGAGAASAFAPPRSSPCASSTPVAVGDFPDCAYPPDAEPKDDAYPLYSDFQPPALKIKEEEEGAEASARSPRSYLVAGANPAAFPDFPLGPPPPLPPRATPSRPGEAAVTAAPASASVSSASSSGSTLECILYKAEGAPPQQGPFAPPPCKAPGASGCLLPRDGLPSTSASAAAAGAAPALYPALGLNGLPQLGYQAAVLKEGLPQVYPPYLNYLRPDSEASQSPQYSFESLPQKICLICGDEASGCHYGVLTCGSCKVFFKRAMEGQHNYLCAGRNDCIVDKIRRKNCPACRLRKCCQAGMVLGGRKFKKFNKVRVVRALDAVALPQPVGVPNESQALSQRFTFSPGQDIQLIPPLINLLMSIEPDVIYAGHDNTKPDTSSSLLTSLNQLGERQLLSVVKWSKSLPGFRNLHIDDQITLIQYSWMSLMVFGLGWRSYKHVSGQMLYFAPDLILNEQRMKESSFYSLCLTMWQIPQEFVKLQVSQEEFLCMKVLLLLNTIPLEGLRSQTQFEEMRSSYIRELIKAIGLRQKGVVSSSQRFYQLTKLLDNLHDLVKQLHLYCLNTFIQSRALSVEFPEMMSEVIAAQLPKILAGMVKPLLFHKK
Procedure, shortened: as §1

[3] = Metabolic stability in human liver microsomes; format: in vitro ADME; conditions: for Predicted clearance [l/h/kg] Human: 1 μM, well-stirred model
Description: (§2) Determination of Metabolic Stability in Human and Rat Liver Microsomes
Isolated human liver microsomes (HLM) were used to assess the metabolic stability of compounds of general formula I.
(§3) The incubations were conducted with 2.4 ml of HLM solution (protein content 0.5 mg/ml), 30 μl of the test compound (final concentration 1 μM) and 0.6 ml of the cofactor mixture (═NADPH-generating system composed of 3 IU glucose-6-phosphate dehydrogenase, 14.6 mg glucose-6-phosphate, 1.2 mg NADP) at 37° C. in 100 mM phosphate buffer at pH 7.4. Samples were taken at 6 time points (2-60 min) and precipitated with an equal volume of methanol, and the recovery of the test substances used in the supernatant was determined by LC-MS/MS analysis. The half-life of substance degradation determined therefrom was used to calculate what is called the intrinsic clearance of the substance in the liver microsome preparation. […] In addition, under the assumptions that (i) absorption of the test substance is 100%, and (ii) the first pass is completely reflected by liver microsome metabolism, a maximum oral bioavailability (Fmax) was calculated.

[4] = Metabolic stability in rat liver microsomes; format: in vitro ADME; conditions: for Predicted clearance [l/h/kg] Rat: well-stirred model
Description: as §2, §3

[5] = Solubility in aqueous medium at pH 7.4; format: physicochemical; conditions: for solubility: aqueous medium, pH 7.4, aqueous buffer
Source text: In addition, some compounds have an unusually good solubility, for this active ingredient class, in aqueous medium under physiological conditions (Table 2).

SMILES	IC50 [1]	IC50 [2]	Predicted Fmax [%] (maximum oral bioavailability) Human [3]	Predicted clearance [l/h/kg] Human [3]	Predicted Fmax [%] (maximum oral bioavailability) Rat [4]	Predicted clearance [l/h/kg] Rat [4]	solubility (in words) ([5]; aqueous medium under physiological conditions)	solubility [5]
C[C@]12C[C@H](c3ccc(/C=C/C(=O)O)cc3)C3=C4CCC(=O)C=C4CC[C@H]3[C@@H]1CC[C@@]2(O)C(F)(F)C(F)(F)F [Example 13, (E)-3-[4-((8S,11R,13S,14S,17S)-17-hydroxy-13-methyl-3-oxo-17-pentafluoroethyl-2,3,6,7,8,11,12,13,14,15,16,17-dodecahydro-1H-cyclopenta[a]phenanthren-11-yl)phenyl]acrylic acid]	0.1 nM	0.3 nM	52%	0.63 L/h/kg	97%	0.1 L/h/kg	improved	> 179 µg/mL
C[C@]12C[C@H](c3ccc(/C=C/C#N)cc3)C3=C4CCC(=O)C=C4CC[C@H]3[C@@H]1CC[C@@]2(O)C(F)(F)C(F)(F)F [Example 14, (E)-3-[4-((8S,11R,13S,14S,17S)-17-hydroxy-13-methyl-3-oxo-17-pentafluoroethyl-2,3,6,7,8,11,12,13,14,15,16,17-dodecahydro-1H-cyclopenta[a]phenanthren-11-yl)phenyl]acrylonitrile]	0.011 nM	0.011 nM	31%	0.9 L/h/kg	75%	1.1 L/h/kg		9 µg/mL (≈ 17.4 µM)
CC(=O)/C=C/c1ccc([C@H]2C[C@@]3(C)[C@@H](CC[C@@]3(O)C(F)(F)C(F)(F)F)[C@@H]3CCC4=CC(=O)CCC4=C32)cc1 [Example 16, (8S,11R,13S,14S,17S)-17-hydroxy-13-methyl-11-[4-((E)-3-oxobut-1-enyl)phenyl]-17-pentafluoroethyl-1,2,6,7,8,11,12,13,14,15,16,17-dodecahydrocyclopenta[a]phenanthren-3-one]	0.1 nM	0.3 nM	23%	1.02 L/h/kg	52%	2.0 L/h/kg		10 µg/mL (≈ 18.7 µM)
C[C@]12C[C@H](c3cccc(/C=C/c4ccccn4)c3)C3=C4CCC(=O)C=C4CC[C@H]3[C@@H]1CC[C@@]2(O)C(F)(F)C(F)(F)F [Example 21, (8S,11R,13S,14S,17S)-17-hydroxy-13-methyl-17-pentafluoroethyl-11-[3-((E)-2-pyridin-2-ylvinyl)phenyl]-1,2,6,7,8,11,12,13,14,15,16,17-dodecahydrocyclopenta[a]phenanthren-3-one]	0.9 nM	1 nM	48%	0.7 L/h/kg	88%	0.5 L/h/kg		7 µg/mL (≈ 12.3 µM)
C[C@]12C[C@H](c3cccc(/C=C/c4cccnc4)c3)C3=C4CCC(=O)C=C4CC[C@H]3[C@@H]1CC[C@@]2(O)C(F)(F)C(F)(F)F [Example 22, (8S,11R,13S,14S,17S)-17-hydroxy-13-methyl-17-pentafluoroethyl-11-[3-((E)-2-pyridin-3-ylvinyl)phenyl]-1,2,6,7,8,11,12,13,14,15,16,17-dodecahydrocyclopenta[a]phenanthren-3-one]	0.3 nM	1 nM	41%	0.8 L/h/kg	77%	1.0 L/h/kg		6 µg/mL (≈ 10.5 µM)
C[C@]12C[C@H](c3cccc(/C=C/c4ccncc4)c3)C3=C4CCC(=O)C=C4CC[C@H]3[C@@H]1CC[C@@]2(O)C(F)(F)C(F)(F)F [Example 23, (8S,11R,13S,14S,17S)-17-hydroxy-13-methyl-17-pentafluoroethyl-11-[3-((E)-2-pyridin-4-ylvinyl)phenyl]-1,2,6,7,8,11,12,13,14,15,16,17-dodecahydrocyclopenta[a]phenanthren-3-one]	0.2 nM	0.2 nM	67%	0.4 L/h/kg	95%	0.2 L/h/kg		8 µg/mL (≈ 14 µM)
C[C@]12C[C@H](c3ccc(/C=C/CC(C#N)C#N)cc3)C3=C4CCC(=O)C=C4CCC3C1CC[C@@]2(O)C(F)(F)C(F)(F)F (stereo partly drawn) [Example 27, 2-{(E)-3-[4-((8S,11R,13S,14S,17S)-17-hydroxy-13-methyl-3-oxo-17-pentafluoroethyl-2,3,6,7,8,11,12,13,14,15,16,17-dodecahydro-1H-cyclopenta[a]phenanthren-11-yl)phenyl]allyl}malonitrile]	0.2 nM	0.1 nM	26%	0.98 L/h/kg	79%	0.9 L/h/kg		10 µg/mL (≈ 17.5 µM)
